ChEMBL document CHEMBL4190261, “Triazole derivatives and their anti-tubercular activity” (Eur J Med Chem, 2017)
≈ marks a conversion by molar mass, not a printed value.

Experiments:
[1] = system: Mycobacterium tuberculosis; experiment: Antimycobacterial activity against Mycobacterium tuberculosis MC2 6230; type: functional
[2] = system: Mycobacterium tuberculosis; experiment: Antimycobacterial activity against Mycobacterium tuberculosis MC2 7000; type: functional
[3] = system: Mycobacterium tuberculosis; experiment: Antimycobacterial activity against Mycobacterium tuberculosis H37Rv ATCC 27294 after 5 days by MABA; type: functional; conditions: H37Rv ATCC 27294, 120 h
[4] = system: Mycobacterium tuberculosis; experiment: Antimycobacterial activity against Mycobacterium tuberculosis H37Rv; type: functional
[5] = system: Mycobacterium tuberculosis; experiment: Potency index, ratio of ethambutol MIC to compound MIC for Mycobacterium tuberculosis H37Rv; type: functional
[6] = system: Mycobacterium tuberculosis; experiment: Antimycobacterial activity against Mycobacterium tuberculosis H37Rv ATCC 27294 by agar dilution method; type: functional
Pantothenate synthetase = molecular target: T1, Pantothenate synthetase (Mycobacterium tuberculosis, UniProt P9WIL5); experiment: Inhibition of Mycobacterium tuberculosis pantothenate synthetase
T1 sequence (P9WIL5 whole entry): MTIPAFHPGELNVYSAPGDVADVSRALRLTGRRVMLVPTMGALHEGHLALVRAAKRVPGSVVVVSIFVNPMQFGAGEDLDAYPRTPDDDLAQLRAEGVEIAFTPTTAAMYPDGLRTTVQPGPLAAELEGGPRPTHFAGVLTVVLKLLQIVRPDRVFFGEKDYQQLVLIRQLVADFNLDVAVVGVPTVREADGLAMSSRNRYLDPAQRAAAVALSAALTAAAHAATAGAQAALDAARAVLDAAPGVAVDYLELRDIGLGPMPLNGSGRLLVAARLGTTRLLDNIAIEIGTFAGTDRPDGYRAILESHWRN

[7] = Selectivity index, ratio of cytotoxic concentration for HEK293 cells to MIC for Mycobacterium tuberculosis H37Rv ATCC 27294; type: toxicity; conditions: human, read-out: Selectivity Index
[8] = system: Mycobacterium tuberculosis; experiment: Potency index, ratio of ethambutol MIC to compound MIC for Mycobacterium tuberculosis H37Rv ATCC 27294; type: functional
[9] = system: Mycobacterium tuberculosis; experiment: Potency index, ratio of linezolid MIC to compound MIC for Mycobacterium tuberculosis H37Rv; type: functional
[10] = molecular target: T2, Phosphotyrosine protein phosphatase (Mycobacterium tuberculosis, UniProt A0A045ISB3); experiment: Inhibition of Mycobacterium tuberculosis PTPB
T2 sequence (A0A045ISB3 whole entry): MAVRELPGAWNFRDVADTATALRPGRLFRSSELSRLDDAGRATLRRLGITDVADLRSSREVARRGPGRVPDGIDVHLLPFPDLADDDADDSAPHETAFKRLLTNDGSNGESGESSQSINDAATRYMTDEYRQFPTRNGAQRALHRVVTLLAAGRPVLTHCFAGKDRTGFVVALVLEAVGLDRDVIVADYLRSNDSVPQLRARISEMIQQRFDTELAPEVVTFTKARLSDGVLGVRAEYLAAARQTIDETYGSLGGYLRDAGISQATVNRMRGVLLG

[11] = Mycobacterium tuberculosis, H37Rv

`NNC(=O)c1ccncc1` [ISONIAZID] showed an MIC [1] of 0.12 to 144 µM, an MIC [2] of 0.12 to 144 µM and an MIC [3] of 0.06 µg/mL (≈ 0.438 µM). For the same compound, the MIC [4, 11] was 0.075 µg/mL (≈ 0.547 µM).
Work on `CCc1cc(C(N)=S)ccn1` [ETHIONAMIDE] yielded an MIC [1] of 0.12 to 144 µM and an MIC [2] of 0.12 to 144 µM.
Compound `NC(=O)c1cnccn1` [PYRAZINAMIDE] has an MIC [4, 11] of 100 µg/mL (≈ 812 µM).
Compound `CO[C@H]1/C=C/O[C@@]2(C)Oc3c(C)c(O)c4c(O)c(c(/C=N/N5CCN(C)CC5)c(O)c4c3C2=O)NC(=O)/C(C)=C\C=C\[C@H](C)[C@H](O)[C@@H](C)[C@@H](O)[C@@H](C)[C@H](OC(C)=O)[C@@H]1C` [RIFAMPIN] has an MIC [1] of 0.12 to 144 µM, an MIC [2] of 0.12 to 144 µM and an MIC [3] of 0.39 µg/mL (≈ 0.474 µM). It also gave an MIC98 [4] of 40 µg/mL (≈ 48.6 µM) and an MIC [4, 11] of 0.043 to 0.5 µg/mL (≈ 0.0523 to 0.608 µM).
In the case of `Clc1cccc(Cl)c1-c1nnc2sc(-c3cccnc3)nn12`, the MIC [4, 11] is reported as 25 µg/mL (≈ 71.8 µM).
`COc1ccc(-c2nnc(-c3cccnc3)n2Nc2nc3c(Cl)cccc3s2)cc1` gave an MIC99 [4, 11] of 25 µg/mL (≈ 57.5 µM).
`CCCCCc1ccc(-c2cn(CC(O)COc3ccc4c(c3)OC3(CCCCC3)CC4=O)nn2)cc1` (stereo not given) gave a Ratio [5] of 2 and an MIC [4, 11] of 0.78 µg/mL (≈ 1.55 µM).
Compound `COc1ccc(-n2cc(Cn3nc(-c4ccccc4)c4c3CCN(C(=O)Nc3ccccc3)C4)nn2)cc1` has an MIC [6] of 24.7 µM (≈ 12.5 µg/mL) and an IC50 (Pantothenate synthetase) of 1010 nM.
With `O=C(N/N=C1/C(=O)N(Cc2ccc(Cl)cc2)c2ccccc21)c1ccc(-n2cc(-c3ccccc3)nn2)cc1O` the MIC [3] was 0.39 µg/mL (≈ 0.71 µM), the selectivity ratio [7] was over 128 and the Ratio [8] was 8.
Work on `c1cncc(-c2nn3c(COc4cnccn4)nnc3s2)c1` yielded an MIC [4, 11] of 0.4 µg/mL (≈ 1.28 µM).
`O=C1CC2CN(c3ccc(N4C[C@H](Cn5ccnn5)OC4=O)cc3F)CC2C1` (stereo not given in full) gave an MIC [4, 11] of 0.5 µg/mL (≈ 1.3 µM) and a Ratio [9] of 2.
Work on `CC1=C(C(=O)O)N2C(=O)[C@@H](NC(=O)[C@H](N)c3ccccc3)[C@H]2SC1` [CEPHALEXIN ANHYDROUS] yielded an MIC [1] of 0.12 to 144 µM and an MIC [2] of 0.12 to 144 µM.
`O=C(CCCCCCn1cc(COc2ccc(-c3cc(C(=O)O)no3)c(C3CCCCC3)c2)nn1)Nc1ccc2cc3ccccc3cc2c1` gave an IC50 [10] of 170 nM.
In the case of `CC(=O)NC[C@H]1CN(c2ccc(N3CCOCC3)c(F)c2)C(=O)O1` [LINEZOLID], the MIC [4, 11] is reported as 1 µg/mL (≈ 2.96 µM).
`CC[C@@H](CO)NCCN[C@@H](CC)CO` [ETHAMBUTOL] gave an MIC [3] of 3.13 µg/mL (≈ 15.3 µM) and an MIC [4, 11] of 1.56 µg/mL (≈ 7.64 µM).
